Reference: PubChem BioAssay (NCI)
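GI50: concentration for 50% inhibition of growth. At the TGI there is no net growth.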

Key:
Assay in all cases: NCI anticancer screen, dose series, 384-well format
SW-620 colon = system: SW-620 colon
A498 renal = system: A498 renal
PC-3 prostate = system: PC-3 prostate
SK-OV-3 ovarian = system: SK-OV-3 ovarian
COLO 205 colon = system: COLO 205 colon
DU-145 prostate = system: DU-145 prostate
SK-MEL-5 melanoma = system: SK-MEL-5 melanoma
SNB-19 CNS = system: SNB-19 CNS
HT29 colon = system: HT29 colon
T-47D breast = system: T-47D breast
U251 glioblastoma = system: U251 glioblastoma
HL-60(TB) leukemia = system: HL-60(TB) leukemia
UACC-257 melanoma = system: UACC-257 melanoma

| Compound | GI50 (SW-620 colon) | TGI (SW-620 colon) | GI50 (A498 renal) | TGI (A498 renal) | GI50 (PC-3 prostate) | TGI (PC-3 prostate) | GI50 (SK-OV-3 ovarian) | TGI (SK-OV-3 ovarian) | GI50 (COLO 205 colon) | TGI (COLO 205 colon) | GI50 (DU-145 prostate) | TGI (DU-145 prostate) | GI50 (SK-MEL-5 melanoma) | TGI (SK-MEL-5 melanoma) | GI50 (SNB-19 CNS) | TGI (SNB-19 CNS) | GI50 (HT29 colon) | TGI (HT29 colon) | GI50 (T-47D breast) | TGI (T-47D breast) | other results |
| --- | --- | --- | --- | --- | --- | --- | --- | --- | --- | --- | --- | --- | --- | --- | --- | --- | --- | --- | --- | --- | --- |
| CC(C)Nc1cc(-c2c[nH]c(C(=O)N[C@H](CO)c3cccc(Cl)c3)c2)c(Cl)cn1 | 0.13 µM | 1.82 µM | 1.76 µM | 12.7 µM | 7.81 µM | 21.3 µM | 6.86 µM | 19.6 µM | 0.134 µM | 1.07 µM | 9.92 µM | 24.3 µM | 0.265 µM | 2.04 µM | 9.24 µM | 22.5 µM | 0.289 µM | 13.2 µM | 9.03 µM | 21.9 µM | GI50 (U251 glioblastoma): 2 µM; TGI (U251 glioblastoma): 15.8 µM; GI50 (HL-60(TB) leukemia): 0.184 µM; TGI (HL-60(TB) leukemia): 1.17 µM; GI50 (UACC-257 melanoma): 0.144 µM; TGI (UACC-257 melanoma): 0.498 µM |
| CC[C@H](Nc1ncnc2nc[nH]c12)c1nc2cccc(F)c2c(=O)n1-c1ccccc1 | > 75.8 µM | > 100 µM | 4.38 µM | 23 µM | 6.18 µM | > 100 µM | 30.6 µM | > 83.3 µM | > 67.3 µM | > 100 µM | 45 µM | > 100 µM | 7.4 µM | > 45.7 µM | > 74.4 µM | > 100 µM | 58.2 µM | > 100 µM | 5.22 µM | 56.4 µM | GI50 (U251 glioblastoma): > 71.4 µM; TGI (U251 glioblastoma): > 100 µM; GI50 (HL-60(TB) leukemia): 4.61 µM; TGI (HL-60(TB) leukemia): 17.9 µM; GI50 (UACC-257 melanoma): > 74.9 µM; TGI (UACC-257 melanoma): > 100 µM |
